These results are taken from patent US7854946B1, “Anti-inflammatory and anti-HIV compositions and methods of use” (Iowa State University Research Foundation, Inc., priority 2007, dated 2010).

Common to all, as to type: cell-based, mouse
Series [1] has as its system PGE2 production in LPS-induced macrophages. Description: PGE2 assay in LPS-induced RAW264.7 macrophages. As to conditions: pure compound in cell media, 1 μg/ml LPS, 8 hours. As for the experimental part: RAW264.7 macrophages were purchased from the American Type Culture Collections (ATCC; […] Cells were plated at a density of 1.0×10^5 cells/well in 24-well cell culture plates and allowed to attach overnight. […] Louis, Mo.) and solvent alone, dimethylsulfoxide (DMSO) (Sigma, St. Louis, Mo.), or H. gentianoides extract or fraction simultaneously for 8 hours. Cell supernatants were collected on ice, and stored in a −70° C. freezer for use in the PGE2 assay. […] Four controls were included in each treatment: media alone, media and DMSO, media and LPS, and media and LPS and DMSO. In addition, 10 μM quercetin was used as a positive control. Since H. perforatum contains light-activated compounds, the H. gentianoides extract was tested in both light-activated and dark conditions initially to determine if the activity was dependent on light activation. […] The supernatant samples were assayed with a Prostaglandin E2 EIA kit (GE Biosciences, Piscataway, N.J.) according to manufacturer's instructions. […] Data is shown as mean percent reduction in LPS-induced PGE2 levels±the standard error as compared to the media+LPS+DMSO control. Statistical significance was determined by an F-protected two-way ANOVA followed by a Tukey-Kramer test for multiple comparisons (Snedecor, G. W., Cochran, W. G., Eds. (1989). Statistical Methods, 8th ed. University Press: Ames, Iowa). For cytotoxicity, data are represented as mean % cytotoxicity±standard error as compared to the media+DMSO control. Statistical significance was determined by an F-protected two-way ANOVA followed by a Dunnett-Hsu test for multiple comparisons (Dunnett C. W. (1955). “A multiple comparison procedure for comparing several treatments with a control.” Journal of the American Statistical Association. 50:1096-1121). […] The ability of H. gentianoides extracts to reduce the inflammatory response was assessed by quantifying PGE2 production in LPS-induced macrophages. […]

For series [2], the system named is RAW264.7 macrophages. Description: CellTiter96 cytotoxicity assay in RAW264.7 macrophages. As for the experimental part:
CellTiter96® Aqueous One Solution cell proliferation assay (Promega Corporation, Madison, Wis.) was used as previously described in Schmitt et al. with an 8-hour treatment incubation instead of 24-hour treatment incubation to parallel the anti-inflammatory studies (Schmitt, L. A., et al., (2006)). Following the 8 hour incubation, treatment solutions were removed and fresh media and Celltiter96® dye were added for 3 hours and 15 minutes (Schmitt, L. A., et al., (2006)). The metabolized dye solutions were transferred to 96-well plates for absorbance measurement at 490 nm. The number of viable cells for each treatment was compared to the media+DMSO solvent control. Treatment with 20 μM hypericin was used as a positive control. Data is shown as mean percent reduction in LPS-induced PGE2 levels±the standard error as compared to the media+LPS+DMSO control. Statistical significance was determined by an F-protected two-way ANOVA followed by a Tukey-Kramer test for multiple comparisons (Snedecor, G. W., Cochran, W. G., Eds. (1989). Statistical Methods, 8th ed. University Press: Ames, Iowa). For cytotoxicity, data are represented as mean % cytotoxicity±standard error as compared to the media+DMSO control. Statistical significance was determined by an F-protected two-way ANOVA followed by a Dunnett-Hsu test for multiple comparisons (Dunnett C. W. (1955). “A multiple comparison procedure for comparing several treatments with a control.” Journal of the American Statistical Association. 50:1096-1121).

Series [3] deals with cyclooxygenase-2. The series is described as follows: Western blot of COX-2 protein in LPS-induced RAW 264.7 macrophages. As to conditions: 8 hour treatment, dose not given. The procedure: FIG. 9. […] After an 8 hour treatment with lipopolysaccharide (LPS) and H. gentianoides fractions, a protein extraction was performed on the RAW 264.7 macrophages. Separation of the proteins was carried out on a discontinuous (4% stacking, 10% resolving) sodium dodecyl sulfate-polyacrylamide (30% acrylamide/bis solution) (BioRad; Hercules, Calif.) gel, followed by transfer to a PVDF membrane (GE Healthcare; Piscataway, N.J.) at 100V for 2.5 hours. COX-2 rabbit polyclonal antibody (Santa Cruz Biotechnology, Santa Cruz, Calif.) was diluted 1:1000 in 5% milk Tris-buffered saline with 0.5% Tween-20 (TBS-T). The secondary antibody (goat, anti-rabbit IgG, HRP conjugated, Santa Cruz Biotechnology; Santa Cruz, Calif.) was diluted 1:1000 in 5% milk in TBS-T. Detection was visualized on blue sensitive autoradiographic film (Marsh Bioproducts; Rochester, N.Y.) with a chemiluminescence (ECLplus) detection kit (GE Healthcare; Piscataway, N.J.).
After an 8 hour treatment with lipopolysaccharide (LPS) and H. gentianoides fractions, RAW 264.7 cells were rinsed twice with ice cold 1× phosphate buffered saline (PBS). […] The protein concentration in each lysate was determined using the bicinchonic acid and copper sulfate protein assay (Sigma; St. Louis, Mo.). […]

The subject of series [4] is cyclooxygenase-1. The series is described as follows: Western blot of COX-1 protein in LPS-induced RAW 264.7 macrophages. Conditions: 8 hour treatment. On the technique in general: A western blot detects proteins with antibodies after separation by electrophoresis.

For `CC(C)=CCc1c(O)c(CC2=C(O)C(C)=C(O)C(CC=C(C)C)(C(=O)C(C)C)C2=O)c(O)c(C(=O)C(C)C)c1O` (centres unmarked) [hyperbrasilol C], the “lowest tested dose with significant reduction of PGE2 concentrations” value in series [1] was 10 µM. Further, the cytotoxicity entry in series [2] (dose of 100 μM) is “no significant cytotoxicity”.

On to `CC(C)=CCc1c(O)c(CC2=C(O)C(C)(C)C(=O)C(C(=O)C(C)C)=C2O)c(O)c(C(=O)C(C)C)c1O` [uliginosin A], for which the “lowest tested dose with significant reduction of PGE2 concentrations” value in series [1] amounted to 10 µM. Besides, the “tested dose from which cytotoxicity is significant” value in series [2] (RAW264.7 macrophages) stood at 100 µM.

As for `Cc1c(O)c(CC2=C(O)C(C)(C)C(=O)C(C(=O)C(C)C)=C2O)c(O)c(C(=O)C(C)C)c1O` [saroaspidin A], in series [1], the “lowest tested dose with significant reduction of PGE2 concentrations” value was determined as 2 µM. In series [2] (RAW264.7 macrophages, tested 0.5-100 μM), the “doses at which significant cytotoxicity stops” value is not above 10 µM. For the same compound, the cyclooxygenase-2 enzyme result in series [3] is listed as “reduces”. Also, the cyclooxygenase-1 protein entry in series [4] was “does not appear to be affected”.
